Assay results as given in patent US9040061B2, “Topical formulation for administering a compound” (Rigel Pharmaceuticals, Inc., priority 2011, dated 2015).
Converted amounts (≈) assume the structure as drawn. Structures can show the parent of a compound that is named as a salt. Where two headings read alike, the source gives them in different places. Marks after values point to notes of the source that are not given here. Blank lines part the entries; values can stand above or below the compound they belong to.

Experiments:
[1] = Solubility studies of compound I; assay type: physicochemical
[2] = Solubility studies of compound I; assay type: physicochemical; remark: listed apart in the source
Method: The solubility of compound I free base in water is only 2 μg/mL. […] Accordingly, the free base was utilized for the formulation development of compound I.

[3] = test system: receptor tyrosine kinase (RTK) signaling; experiment: Receptor tyrosine kinase signaling; assay type: cell-based
[4] = test system: other cytokine (IL-1β and TNFα) signaling; experiment: Other cytokine signaling; assay type: cell-based
[5] = test system: human Ramos B cells stimulated with human IL-4 (JAK1 and JAK3, CD23 upregulation); experiment: Ramos B-cell line stimulated with IL-4, CD23 upregulation (FACS); assay type: cell-based; conditions: IL-4 50 units/mL for 20-24 hours, anti-CD23-PE FACS
From the text: One means of assaying for JAK inhibition is detection of the effect of compound I on the upregulation of downstream gene products. In the Ramos/IL4 assay, B-cells are stimulated with the cytokine Interleukin-4 (IL-4) leading to the activation of the JAK/Stat pathway through phosphorylation of the JAK family kinases, JAK1 and JAK3, which in turn phosphorylate and activate the transcription factor Stat-6. […] To study the effect of inhibitors (for example, the 2,4-substituted pyrimidinediamine compounds described herein) on the JAK1 and JAK3 kinases, human Ramos B cells are stimulated with human IL-4. Twenty to 24 hours post stimulation, cells are stained for upregulation of CD23 and analyzed using flow cytometry (FACS). […] An exemplary assay of this type is described in greater detail below.
B-cells stimulated with cytokine Interleukin-4 (IL-4) activate the JAK/Stat pathway through phosphorylation of the JAK family kinases, JAK-1 and JAK-3, which in turn phosphorylate and activate the transcription factor Stat-6. […] To study the effect of inhibitors on the JAK family kinases, human Ramos B cells are stimulated with human IL-4.
The Ramos B-cell line was acquired from ATCC (ATCC Catalog No. CRL-1596). […]
Cells were spun down and suspended in RPMI with 5% serum. […] Cells were then spun down and stained with anti-CD23-PE (BD Pharmingen, San Diego, Calif., Cat No. 555711) and analyzed by FACS. […]

primary human T-cells = experiment: Primary human T-cell proliferation assay stimulated with IL-2; assay type: cell-based; conditions: IL-2, 72 hours, CellTiter-Glo
From the text: The JAK activity of compound I may further be characterized by assaying the effect of compound I on the proliferative response of primary human T-cells. In this assay, primary human T-cells derived from peripheral blood and pre-activated through stimulation of the T-cell receptor and CD28, proliferate in culture in response to the cytokine Interleukin-2 (IL-2). This proliferative response is dependent on the activation of JAK1 and JAK3 tyrosine kinases, which phosphorylate and activate the transcription factor Stat-5. The primary human T-cells are incubated with compound I in the presence of IL-2 for 72 hours and at the assay endpoint intracellular ATP concentrations are measured to assess cell viability. A reduction in cell proliferation compared to control conditions is indicative of inhibition of the JAK kinase pathway. An exemplary assay of this type is described in greater detail below.
Primary human T-cells derived from peripheral blood and pre-activated through stimulation of the T-cell receptor and CD28, proliferate in vitro in response to the cytokine Interleukin-2 (IL-2). […]
Proliferation was measured using CellTiter-Glo® Luminescent Cell Viability Assay (Promega), which determines the number of viable cells in culture based on quantitation of the ATP present, as an indicator of metabolically active cells. […]

cell proliferation = experiment: Cell proliferation; assay type: cell-based
Syk = molecular target: T1, Syk (Homo sapiens, UniProt P43405); experiment: Human cell based assay against Syk; conditions: human cell based assays, read-out: half maximal effective concentration (EC50)
T1 construct: endogenous in cells

solubility ([1]; DMI, organic solvent or mixture, DMI (temperature not given), read-out: Solubility): 400 µg/mL
solubility ([1]; EtOH, organic solvent or mixture, EtOH (temperature not given), read-out: Solubility): 300 µg/mL
solubility ([1]; PEG400 (temperature not given)): 2.6 ^e mg/mL
solubility ([1]; PG): 5.2 ^e mg/mL
solubility ([1]; diethylene glycol monoethyl ether (Transcutol P), organic solvent or mixture, Diethylene glycol monoethyl ether (transcutol P), read-out: Solubility): 900 µg/mL
solubility ([1]; isopropyl myristate, oil or lipid, Isopropyl Myristate, read-out: Solubility): 5 µg/mL
solubility ([1]; propylene glycol laurate (Lauroglycol FCC), oil or lipid, Propylene Glycol Laurate (Lauroglycol FCC), read-out: Solubility): 20 µg/mL
solubility ([1]; propylene glycol monocaprylate (Capryol 90), oil or lipid, Propylene Glycol Monocaprylate (Capryol 90), read-out: Solubility): 70 µg/mL
solubility ([2]; 40% TPGS/60% PEG400, organic solvent or mixture, 40% TPGS/60% PEG400, read-out: Solubility): 1700 µg/mL
solubility ([2]; IPA, organic solvent or mixture, IPA, read-out: Solubility): 37 µg/mL
solubility ([2]; oleyl alcohol, oil or lipid, Oleyl alcohol, read-out: Solubility): 200 µg/mL
solubility ([2]; polyoxyglyceride (Labrafil M1944 CS), oil or lipid, Polyoxyglyceride (Labrafil M1944 CS), read-out: Solubility): 70 µg/mL
solubility ([2]; polyoxyglyceride (Labrasol), oil or lipid, Polyoxyglyceride (Labrasol), read-out: Solubility): 1800 µg/mL
solubility ([2]; triglyceride, oil or lipid, Triglyceride, read-out: Solubility): 20 µg/mL
Structure (SMILES): C#CCOc1ccc(Nc2nc(Nc3ccc(C)c(S(N)(=O)=O)c3)ncc2F)cc1 [Compound I HCl, N2-(3-aminosulfonyl-4-methylphenyl)-5-fluoro-N4-[4-(prop-2-ynyloxy)phenyl]-2,4-pyrimidinediamine]

solubility ([1]; PEG400 (temperature not given)): 48000 µg/mL
solubility ([1]; PG): 15 ^d mg/mL
Structure (SMILES): C#CCOc1ccc(Nc2nc(Nc3ccc(C)c(S(N)(=O)=O)c3)ncc2F)cc1 [Compound I besylate salt, N2-(3-aminosulfonyl-4-methylphenyl)-5-fluoro-N4-[4-(prop-2-ynyloxy)phenyl]-2,4-pyrimidinediamine]

solubility ([1]; 5% THF-95% PEG400, organic solvent or mixture, 5% THF-95% PEG400, read-out: Solubility): 117000 µg/mL (≈ 274 mM)
solubility ([1]; 10% THF-90% PEG400, organic solvent or mixture, 10% THF-90% PEG400, read-out: Solubility): 129000 µg/mL (≈ 302 mM)
solubility ([1]; 20% EtOH-80% PEG400, organic solvent or mixture, 20% EtOH-80% PEG400, read-out: Solubility): 126000 µg/mL (≈ 295 mM)
solubility ([1]; 20% H2O-80% THF, organic solvent or mixture, 20% H2O-80% THF, read-out: Solubility): 133000 µg/mL (≈ 311 mM)
solubility ([1]; 50% EtOH-50% PEG400, organic solvent or mixture, 50% EtOH-50% PEG400, read-out: Solubility): 136000 µg/mL (≈ 318 mM)
solubility ([1]; 90% THF-10% PEG400, organic solvent or mixture, 90% THF-10% PEG400, read-out: Solubility): 75000 µg/mL (≈ 175 mM)
solubility ([1]; EtOH, 25 °C, organic solvent or mixture, EtOH, determined at 25° C., read-out: Solubility): 3200 µg/mL (≈ 7.49 mM)
solubility ([1]; Glycofurol, listed as Compound I free base): >205 ^b mg/mL
solubility ([1]; PEG400 (temperature not given), listed as Compound I free base): 129 ^c mg/mL
solubility ([1]; PEG400, 25 °C, organic solvent or mixture, PEG400, determined at 25° C., read-out: Solubility): > 200000 µg/mL
solubility ([1]; PEG400, determined at 25° C.): 292000 µg/mL (≈ 683 mM)
solubility ([1]; PG, listed as Compound I free base): 27 ^c mg/mL
solubility ([1]; glycofurol, organic solvent or mixture, Glycofurol, read-out: Solubility): > 200000 µg/mL
solubility ([1]; glycofurol/water 8/2, organic solvent or mixture, Glycofurol/water 8/2, read-out: Solubility): < 205000 µg/mL
solubility ([1]; glycofurol/water 9/1 w/w, organic solvent or mixture, Glycofurol/water 9/1 w/w, read-out: Solubility): > 202000 µg/mL
solubility ([1]; water, 25 °C, water, determined at 25° C., read-out: Solubility): 2 µg/mL (≈ 0.00468 mM)
activity on receptor tyrosine kinase (RTK) signaling [3]: little or no activity
IC50 [5]: 0.056 nM
solubility ([2]; 4% H2O-96% THF, organic solvent or mixture, 4% H2O-96% THF, read-out: Solubility): 77000 µg/mL (≈ 180 mM)
solubility ([2]; 12% H2O-88% THF, organic solvent or mixture, 12% H2O-88% THF, read-out: Solubility): 202000 µg/mL (≈ 473 mM)
solubility ([2]; 16% H2O-84% THF, organic solvent or mixture, 16% H2O-84% THF, read-out: Solubility): 163000 µg/mL (≈ 381 mM)
solubility ([2]; 95% THF-5% PEG400, organic solvent or mixture, 95% THF-5% PEG400, read-out: Solubility): 70000 µg/mL (≈ 164 mM)
solubility ([2]; DMI, 25 °C, organic solvent or mixture, DMI, determined at 25° C., read-out: Solubility): 124000 µg/mL (≈ 290 mM)
solubility ([2]; Miglyol 812N, oil or lipid, Miglyol 812N, read-out: Solubility): 2300 µg/mL (≈ 5.38 mM)
compound I concentration that can be obtained (solubility study) ([2]; at 45° C. in a formulation containing 14% water, 45% PEG400, and 20% PEG4500): 120 mg/g
solubility ([2]; castor oil, oil or lipid, Castor Oil, read-out: Solubility): 7400 µg/mL (≈ 17.3 mM)
solubility ([2]; water, 25 °C, water, 25° C., read-out: water solubility): 2 µg/mL (≈ 0.00468 mM)
EC50 (Syk): ~140 nM
Structure (SMILES): C#CCOc1ccc(Nc2nc(Nc3ccc(C)c(S(N)(=O)=O)c3)ncc2F)cc1 [Compound I, N2-(3-aminosulfonyl-4-methylphenyl)-5-fluoro-N4-[4-(prop-2-ynyloxy)phenyl]-2,4-pyrimidinediamine]
activity on other cytokine (IL-1β and TNFα) signaling [4]: little or no activity
IC50 (primary human T-cells): 0.181 nM
inhibition of cell proliferation (cell proliferation): not a broad inhibitor of cell proliferation
